Results: ChEMBL document CHEMBL4622928, “Discovery of 5-(4-methylpiperazin-1-yl)-2-nitroaniline derivatives as a new class of SIRT6 inhibitors” (Bioorg Med Chem Lett, 2020)
pIC50: −log10 of the molar value.

Target: NAD-dependent protein deacylase sirtuin-6 (Homo sapiens, UniProt Q8N6T7)
Test: Inhibition of SIRT6 (unknown origin) using Ac-RYQK(Ac)-AMC as substrate by Fluor de Lys assay

Chain of NAD-dependent protein deacylase sirtuin-6 (Q8N6T7 whole entry): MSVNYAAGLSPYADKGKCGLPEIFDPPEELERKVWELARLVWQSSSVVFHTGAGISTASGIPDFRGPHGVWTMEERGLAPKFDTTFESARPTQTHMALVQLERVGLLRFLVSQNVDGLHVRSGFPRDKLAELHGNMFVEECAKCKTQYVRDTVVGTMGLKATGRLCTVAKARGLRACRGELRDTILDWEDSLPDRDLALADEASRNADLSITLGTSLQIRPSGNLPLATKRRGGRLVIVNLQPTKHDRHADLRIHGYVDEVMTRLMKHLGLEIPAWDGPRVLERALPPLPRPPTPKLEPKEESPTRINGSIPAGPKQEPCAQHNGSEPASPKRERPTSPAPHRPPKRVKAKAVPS

| Structure (SMILES) | pIC50 |
| --- | --- |
| COC(=O)c1cc(N2CCN(C)CC2)ccc1[N+](=O)[O-] | 5.02 |
| CN1CCN(c2ccc([N+](=O)[O-])c(C(=O)NCc3ccccc3)c2)CC1 | 4.76 |
| COc1cc(N2CCN(C)CC2)ccc1[N+](=O)[O-] | 5.04 |
| CN1CCN(c2ccc([N+](=O)[O-])c(NCc3ccccc3)c2)CC1 | 4.90 |
| CN1CCN(c2ccc([N+](=O)[O-])cc2)CC1 | 4.66 |
| CN1CCN(c2ccc([N+](=O)[O-])c(NC(=O)c3cc(Cl)nc4ccccc34)c2)CC1 | 4.91 |
| CN1CCN(c2ccc([N+](=O)[O-])c(O)c2)CC1 | 4.96 |
| CN1CCN(c2ccc([N+](=O)[O-])c(C(=O)Nc3cccc4ccccc34)c2)CC1 | 4.77 |
| CN1CCN(c2ccc([N+](=O)[O-])c(C(F)(F)F)c2)CC1 | 4.68 |
| CN1CCN(c2ccc([N+](=O)[O-])c(C(=O)Nc3ccc(Oc4ccccc4)cc3)c2)CC1 | 4.68 |
